Test results: BindingDB's records for patent US20240101531 (Xenon Pharmaceuticals, 2024)
pEC50: −log10 of the molar value.

Target: Potassium voltage-gated channel subfamily KQT member 2/3 (Homo sapiens, UniProt O43525+O43526)
Experiment: In Vitro Assay
Text: This potassium flux assay employs the cell-permeable, potassium-sensitive dye, IPG-2 AM, to quantify potassium ion flux through potassium channels.In general, TREX HEK 293 or HEK 293 cells were stably transfected with either an inducible or non-inducible expression vector containing the full-length cDNA coding for the desired human KV7.2/KV7.3 or in combination with another full-length cDNA for a second desired human KV7 potassium channel. Potassium channel-expressing cell lines were induced with tetracycline (1 g/mL), if required, and plated on 384-well poly-D-lysine (PDL)-coated plates in culture media (DMEM, containing 10% FBS and 1% L-glutamine). After overnight incubation, culture media was removed and cells were loaded with 5 M IPG-2 AM dye for 1 hour in Assay buffer (140 mM NaCl, 20 mM RbCl, 2 mM CaCl2, 1 mM MgCl2, 10 mM HEPES (4-(2-hydroxyethyl)-1-piperazineethanesulfonic acid buffer), 10 mM glucose, adjusted with Tris to pH 7.4). Excess dye was removed, and cells incubated at room temperature for 20 minutes with or without test compound. […]

Chain of Potassium voltage-gated channel subfamily KQT member 2/3 (O43526 whole entry): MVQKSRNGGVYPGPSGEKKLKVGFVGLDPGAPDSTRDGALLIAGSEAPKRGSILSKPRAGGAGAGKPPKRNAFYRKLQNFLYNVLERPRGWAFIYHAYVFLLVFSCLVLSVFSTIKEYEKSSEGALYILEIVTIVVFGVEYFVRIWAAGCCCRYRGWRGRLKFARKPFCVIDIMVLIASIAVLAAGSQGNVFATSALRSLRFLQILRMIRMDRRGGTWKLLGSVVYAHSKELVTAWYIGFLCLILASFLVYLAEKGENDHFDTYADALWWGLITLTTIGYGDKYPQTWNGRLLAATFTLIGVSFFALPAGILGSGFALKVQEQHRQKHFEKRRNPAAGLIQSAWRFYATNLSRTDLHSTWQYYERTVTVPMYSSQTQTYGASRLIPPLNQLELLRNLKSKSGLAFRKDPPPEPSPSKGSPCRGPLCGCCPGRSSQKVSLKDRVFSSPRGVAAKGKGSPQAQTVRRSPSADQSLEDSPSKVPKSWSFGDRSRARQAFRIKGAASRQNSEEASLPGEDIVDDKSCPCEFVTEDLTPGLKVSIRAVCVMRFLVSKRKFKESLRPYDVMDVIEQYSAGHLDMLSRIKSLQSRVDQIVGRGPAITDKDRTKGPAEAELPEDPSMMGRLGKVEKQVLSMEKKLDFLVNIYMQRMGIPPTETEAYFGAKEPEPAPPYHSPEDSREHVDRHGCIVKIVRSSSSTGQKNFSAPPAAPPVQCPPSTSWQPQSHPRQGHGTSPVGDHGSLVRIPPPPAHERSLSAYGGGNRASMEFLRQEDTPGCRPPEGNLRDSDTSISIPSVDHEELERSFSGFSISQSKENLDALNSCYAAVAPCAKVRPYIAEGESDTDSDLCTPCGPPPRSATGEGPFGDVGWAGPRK
Chain of Potassium voltage-gated channel subfamily KQT member 2/3 (O43525 whole entry): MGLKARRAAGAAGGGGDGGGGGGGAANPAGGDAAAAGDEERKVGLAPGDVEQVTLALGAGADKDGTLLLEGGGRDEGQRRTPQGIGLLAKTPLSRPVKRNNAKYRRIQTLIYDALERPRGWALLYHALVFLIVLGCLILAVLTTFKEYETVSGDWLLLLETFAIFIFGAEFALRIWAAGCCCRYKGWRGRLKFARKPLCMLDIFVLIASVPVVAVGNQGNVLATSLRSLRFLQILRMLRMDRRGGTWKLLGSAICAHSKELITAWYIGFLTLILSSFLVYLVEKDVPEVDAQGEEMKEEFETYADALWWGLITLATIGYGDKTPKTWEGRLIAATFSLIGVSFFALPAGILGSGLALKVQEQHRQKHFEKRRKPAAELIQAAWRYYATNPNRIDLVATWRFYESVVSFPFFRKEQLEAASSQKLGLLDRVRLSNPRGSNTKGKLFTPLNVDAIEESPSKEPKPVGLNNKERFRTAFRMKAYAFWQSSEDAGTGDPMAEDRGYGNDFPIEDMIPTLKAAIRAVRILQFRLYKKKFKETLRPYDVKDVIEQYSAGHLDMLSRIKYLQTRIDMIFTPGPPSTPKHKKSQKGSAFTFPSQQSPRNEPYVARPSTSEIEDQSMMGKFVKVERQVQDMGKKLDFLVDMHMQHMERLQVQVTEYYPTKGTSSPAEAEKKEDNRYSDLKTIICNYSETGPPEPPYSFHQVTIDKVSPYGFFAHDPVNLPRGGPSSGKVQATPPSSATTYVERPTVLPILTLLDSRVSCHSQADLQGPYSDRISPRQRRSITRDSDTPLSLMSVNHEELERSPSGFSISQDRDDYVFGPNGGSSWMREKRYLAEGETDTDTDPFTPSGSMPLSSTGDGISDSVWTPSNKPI

Structure (SMILES): CC1(C)CC1(C#N)COc1ccc2c(Nc3ccc(Cl)nc3)nccc2c1 (stereo unspecified) [US20240101531, Example 330]
- pEC50: > 6.00
